Measurements taken from publication PMC8652888, “Angiogenesis, Anti-Tumor, and Anti-Metastatic Activity of Novel α-Substituted Hetero-Aromatic Chalcone Hybrids as Inhibitors of Microtubule Polymerization” (Frontiers in Chemistry, 2021).
Values joined by “and” are separate entries in the source; they are usually repeats but may differ in a detail not shown here. Equal entries are not always repeated. Where two headings read alike, the source gives them in different places.

Key:
Assay type in all cases: cell-based, human
[1] = test system: HepG2; test: Antiproliferative activity, SRB assay
In short: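 Cells seeded at 3 × 10^3–4 × 10^3 per well, grown 24 h, then exposed to compounds at various concentrations for 72 h at 37 °C. TCA-fixed cells stained with 0.4% SRB; bound dye dissolved in 10 mM Tris base and OD read at 560 nm.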

[2] = test system: taxol-resistant MCF7 cells (MCF7/Tax); test: Growth inhibition of taxol-resistant cells
[3] = test system: MCF-7, U937, HepG2 and MGC-803 cells; test: Antiproliferative activity, cancer cell panel (text summaries); conditions: U937, MCF7, HepG2; read-out: IC50 against three cancer cells
Description: The synthesized compounds were first evaluated for their cytotoxic effect on MCF-7 (human breast adenocarcinoma), U937 (histiocytic lymphoma cancer), HepG2 (human liver cancer) cells, and MGC-803 (human gastric cancer) using the SRB and CCK-8 assay. As reference compounds CA-4 and colchicine were included.
The primary tumor cells were purchased from a professional biomedical company. First, the primary tumor cells were incubated in a cell culture incubator at 37°C and 5% CO2. After the cell fusion reached 85%–95%, subculture was performed, and the tumor cells obtained at this time were used for subsequent related experiments. The CCK-8 method was used to inhibit the proliferation of U937 tumor cells, and the SRB method was used to inhibit the proliferation of MCF7 and HepG2 tumor cells.
Cells were distributed into 96-well plates with a density of 3 × 10^3–4 × 10^3 cells per well and incubated for 24 h in a 5% CO2 incubator at 37°C, followed by treatment with study compounds at different concentrations at 37°C for 72 h. One hundred microliters of 10% (w/v) trichloroacetic acid was added to each well, fixed at 4°C for 30 min, and dried at 65°C. Then 100 μl of 0.4% SRB was added to each well and stained on a shaker for 20 min at room temperature. The excess dye solution was washed with newly prepared 1% glacial acetic acid and dried at 65°C. One hundred fifty microliters of 10 mM unbuffered Trisbase was added to each well of the plate and shaken for 5 min to dissolve the dye. The microplate reader measured the optical density (OD) at a wavelength of 560 nm.
The cells in the logarithmic growth phase were seeded in a 96-well plate at 8,000/well, and the drug-containing medium and cell suspension were added to the well. Three wells were added with the blank medium as the blank group. The 96-well plate was incubated for 72 h in a 37°C, 5% CO2 incubator. The 10 μl of CCK-8 dye solution was added to each well, and the incubation continued for 3–4 h.

[4] = test system: microtubule network in MCF-7 cells; test: Immunofluorescent staining of microtubule network; conditions: 0.4 μM, 24 h
Description: Microtubule dynamics play an essential role in cancer cell growth. To examine whether compound 7m is able to disrupt microtubule dynamics, an immunofluorescent assay was carried out in MCF-7 cells.
Then the cells were washed with PBS three times. After permeabilization with 0.25% Triton X-100 for 5 min, the cells were washed with PBS three times and blocked in 5% bovine serum albumin (BSA) for 40 min. The cells were incubated with rabbit anti-α-tubulin primary antibody containing 5% BSA at room temperature for 5–6 h and washed with PBS three times. Cells were finally visualized under a fluorescence microscope.

[5] = test system: Caspase-3/-7/-9 and PARP in MCF-7 cells; test: Western blot of apoptosis-related proteins
Description: The Caspase family proteins are considered to be critical regulators of cell apoptosis and facilitate cellular disassembly. Among them, Caspase-9 is termed as a typical caspase and is usually activated first, which in turn activates the “executioner” of apoptosis induction, in particular, Caspase-3. It is known that the […] of poly (ADP-ribose) polymerase (PARP), a downstream substrate of Caspase-3, is a common feature of nuclear fragmentation and chromatin condensation ([Hensley and Kyprianou, 2013]). Thus, the association between 7m-induced apoptosis and the expression of these proteins was investigated by Western blot analysis. MCF-7 cells were treated with 7m at different concentrations (100, 200, and 400 nM) for 48 h.
MCF-7 cells were seeded into […] dishes at a density of 6 × 10^5/dish and incubated for 24 h. After treating the cells with the compound 7m, the cells were cultured for 48 h and washed with PBS, and then the soluble and insoluble tubulin fractions were collected. Protein quantification was performed by BCA Protein Concentration Determination Kit following centrifugation at 12,000 rpm for 10 min at 4°C. Cell lysates were separated by SDS-PAGE at 80 V constant voltage for 30–40 min. […] After 5% skim milk was blocked for 1 h, the primary antibody was added and incubated overnight before being washed three times with PBST. The secondary antibody was incubated for 2 h at room temperature the next day and subsequently washed three times with PBST. Then the signal was detected with ECL.

[6] = test system: HUVECs; test: Transwell cell invasion experiment; conditions: 1, 5, 25 μΜ
Description: A wound healing assay was, thus, performed to evaluate the capacity of 7m to inhibit cell motility. […] Then the invasion inhibitory activities of 7m were further detected using Transwell assay with HUVECs cells treated with 0, 1, 5, and 25 μΜ of 7m. In this assay, […] were seeded into upper chambers which were pre-coated with Matrigel matrix in order to evaluate the cellular invasion.
The upper chamber of the Transwell chamber was filled with cells resuspended in serum-free medium, 6 × 10^4 cells per well, 100 μl per well, and the lower chamber was added with 10% FBS-containing medium prepared with different concentrations of 7m. The cells were allowed to migrate for 48 h at 37°C in an atmosphere of 5% CO2. Then the migration of cells to the underside of the filter was determined by crystal violet staining.

## 3-(benzofuran-6-yl)-2-methyl-1-(3,4,5-trimethoxyphenyl)prop-2-en-1-one [Compound 7m]
[1]; 72 h, triplicate, mean ± SD, read-out: IC50 ± SD, HepG2
  IC50: 70 ± 1 nM
[1]; supplement raw data of table 2, read-out: IC50(Hepg2)
  IC50: 70.5 nM
[2]; (IC50 MCF7/Tax)/(IC50 MCF7)
  Resistant fold: 1.2
[2]; three single determinations, read-out: MCF-7/Taxol (raw data of table 3, IC50)
  IC50: 242 nM and 181 nM and 216 nM
[2]; triplicate, read-out: IC50 ± SD, MCF7/Tax
  IC50: 213 ± 26 nM
[3]
  IC50: 70 to 183 nM
[4]
  effect on microtubule organization: significant disruption of microtubule organization
[5]; 100nM, two runs
  Caspase3, band quantification: 1.6879 and 1.67
  Caspase7, band quantification: 1.25 and 1.4891
  Caspase9, band quantification: 0.8806
  Cleaved caspase 3, band quantification: 0.4362 and 0.4615
  Cleaved caspase 7, band quantification: 0.3077 and 0.3272
  Cleaved caspase 9, band quantification: 0.7024 and 0.6835
  Cleaved parp, band quantification: 0.5428 and 0.547
[5]; 200nM, two runs
  Caspase3, band quantification: 1.615 and 1.544
  Caspase7, band quantification: 1.204 and 1.374
  Caspase9, band quantification: 0.8807 and 0.8294
  Cleaved caspase 3, band quantification: 0.3538 and 0.3842
  Cleaved caspase 7, band quantification: 0.3681 and 0.3821
  Cleaved caspase 9, band quantification: 0.8845 and 0.8641
  Cleaved parp, band quantification: 0.6141 and 0.6251
  PARP, band quantification: 0.2886 and 0.4533
[5]; 400nM, two runs
  Caspase3, band quantification: 1.359 and 1.362
  Caspase7, band quantification: 1.134 and 1.286
  Caspase9, band quantification: 0.8246 and 0.7921
  Cleaved caspase 3, band quantification: 0.6252 and 0.6493
  Cleaved caspase 7, band quantification: 0.3556 and 0.4028
  Cleaved caspase 9, band quantification: 0.8063 and 0.765
  Cleaved parp, band quantification: 0.6767 and 0.7365
[5]; 100, 200, 400 nM, 48 h
  activation of Caspase-3/-7/-9: concentration-dependent activation
  cleavage of PARP: significant cleavage of PARP
[6]
  invasion ability of cells: invasion ability of cells gradually weakened
